Measurements published in patent publication US6706740B2, “Fungicidal heterocyclic aromatic amides and their compositions, methods of use and preparation” (Dow AgroSciences LLC, priority 1999, dated 2004).
Like-named read-outs stand apart in the source and are kept apart here.

Assays:
[1] = system: Magnaporthe grisea (Pyricularia oryzae—PYRIOR); test: microbe, parasite or virus in culture; assay type: cell-based; conditions: Pyricularia oryzae, read-out: PYRIOR in vitro Growth Inhibition
[2] = system: Rhizoctonia solani (RHIZSO); test: microbe, parasite or virus in culture; assay type: cell-based; conditions: Rhizoctonia solani, read-out: RHIZSO in vitro Growth Inhibition
[3] = system: Mycosphaerella graminicola (Septoria tritici—SEPTTR); test: In vitro fungal growth inhibition, Mycosphaerella graminicola (SEPTTR); assay type: cell-based; conditions: Zymoseptoria tritici, read-out: SEPTTR in vitro Growth Inhibition
[4] = system: Stagonospora nodorum (Leptosphaeria nodorum—LEPTNO); test: In vitro fungal growth inhibition, Stagonospora nodorum (LEPTNO); assay type: cell-based; conditions: Leptosphaeria, read-out: LEPTNO in vitro Growth Inhibition
Ustilago maydis (USTIMA) = test: microbe, parasite or virus in culture; assay type: cell-based; conditions: Mycosarcoma maydis, read-out: USTIMA in vitro Growth Inhibition
[5] = system: Phytophthora infestans (PHYTIN); test: microbe, parasite or virus in culture; assay type: cell-based; conditions: Phytophthora infestans, read-out: PHYTIN in vitro Growth Inhibition
[6] = system: Phytophthora infestans—PHYTIN; test: whole plant or invertebrate; assay type: in vivo; conditions: Phytophthora, in Solanum lycopersicum, 24 h, read-out: PHYTIN in vivo 1 Day Protectant
[7] = system: Puccinia recondita—PUCCRT; test: Brown Rust of Wheat, in vivo whole plant, 24 Hour Protectant; conditions: Puccinia, control of fungal infection vs untreated plants, read-out: PUCCRT in vivo 1 Day Protectant
Erysiphe graminis—ERYSGT = test: Powdery Mildew of Wheat, in vivo whole plant, 24 Hour Protectant; conditions: control of fungal infection vs untreated plants; for pest or weed control at 100 ppm: Erysiphe, read-out: ERYSGT in vivo 1 Day Protectant
Septoria tritici—SEPTTR = test: Leaf Blotch of Wheat, in vivo whole plant, 24 Hour Protectant; conditions: Zymoseptoria tritici, 24 h, control of fungal infection vs untreated plants, read-out: SEPTTR in vivo 1 Day Protectant
[8] = system: Leptosphaeria nodorum—LEPTNO; test: Glume Blotch of Wheat, in vivo whole plant, 24 Hour Protectant; conditions: control of fungal infection vs untreated plants; for pest or weed control at 100 ppm: Leptosphaeria, read-out: LEPTNO in vivo 1 Day Protectant
[9] = wheat plants sprayed at 100 ppm, inoculated after 24 hours
[10] = 100 ppm spray, wheat, 24 hour protectant
[11] = 100 ppm spray, 24 hour protectant, wheat

SMILES | inhibition at 25 ppm [1] [%] | inhibition at 25 ppm [2] [%] | inhibition at 25 ppm ([3]; 25 ppm in the growth medium) [%] | inhibition at 25 ppm ([4]; 25 ppm in the growth medium) [%] | inhibition at 25 ppm (Ustilago maydis (USTIMA)) [%] | inhibition at 25 ppm [5] [%] | pest or weed control at 100 ppm [6] [%] | pest or weed control at 100 ppm [7, 9] [%] | pest or weed control at 100 ppm (Erysiphe graminis—ERYSGT; [9]) [%] | pest or weed control at 100 ppm (Septoria tritici—SEPTTR; [9]) [%] | pest or weed control at 100 ppm [8, 9] [%] | melting point | inhibition at 25 ppm ([3]; 25 ppm in growth medium) [%] | inhibition at 25 ppm ([4]; 25 ppm in growth medium) [%] | other results
CC(C)C(=O)O[C@H]1[C@H](C)OC(=O)[C@@H](NC(=O)c2cnccc2O)COC(=O)[C@@H]1Cc1ccccc1 [Compound 503] | < 80 | < 80 | > 80 | > 80 | < 80 | < 80 | < 25 | 25 to 74 | 25 to 74 | < 25 | 25 to 74 | 213 to 215 °C (dec.) |  |  | 
COc1ccnc(C(=O)Nc2ccc(OC3CC(C)(C)CC(C)(C)C3)cc2)c1O [Compound 458] | < 80 | < 80 |  |  | < 80 | < 80 | < 25 |  |  |  |  | 141 to 142 °C | < 80 | > 80 | pest or weed control at 100 ppm [7, 10]: 25 to 74%; pest or weed control at 100 ppm (Erysiphe graminis—ERYSGT; [10]): < 25%; pest or weed control at 100 ppm (Septoria tritici—SEPTTR; [10]): < 25%; LEPTNO in vivo 1 Day Protectant [8, 10]: + +
CC1(C)CC(NC(=O)c2nc3ccccc3nc2O)CC(C)(C)C1 [Compound 563] | < 80 | < 80 | < 80 | < 80 | < 80 | < 80 | < 25 | < 25 | < 25 | < 25 | 25 to 74 | > 300 °C |  |  | 
CC(C)C(=O)O[C@H]1[C@H](C)OC(=O)[C@@H](NC(=O)c2nnccc2O)COC(=O)[C@@H]1Cc1ccccc1 [Compound 532] | < 80 | < 80 | < 80 | < 80 | < 80 | < 80 | 25 to 74 | 25 to 74 | 25 to 74 | 25 to 74 | 25 to 74 | 233 °C (dec.) |  |  | 
O=C(Nc1cccc(Cl)c1)c1ncccc1O [Compound 212] | > 80 | < 80 |  |  | < 80 | < 80 | < 25 |  |  |  |  | 131 to 132 °C | < 80 | < 80 | pest or weed control at 100 ppm [7, 11]: < 25%; pest or weed control at 100 ppm (Erysiphe graminis—ERYSGT; [11]): < 25%; pest or weed control at 100 ppm (Septoria tritici—SEPTTR; [11]): < 25%; pest or weed control at 100 ppm [8, 11]: < 25%
COc1ccnc(C(=O)Nc2ccc(Oc3ccc(C(F)(F)F)cc3)cn2)c1O [Compound 470] | > 80 | > 80 | > 80 | > 80 | < 80 | < 80 | < 25 | 25 to 74 | 25 to 74 | 25 to 74 | 25 to 74 | 173 to 175 °C |  |  | 
CC(C)C(=O)O[C@H]1[C@H](C)OC(=O)[C@@H](NC(=O)c2cncnc2O)COC(=O)[C@@H]1Cc1ccccc1 [Compound 540] | < 80 | < 80 | < 80 | < 80 | < 80 | < 80 | < 25 | < 25 | < 25 | 25 to 74 | < 25 | 195 °C (dec.) |  |  | 
CC(NC(=O)c1nc(Br)ccc1O)c1ccc(Cl)cc1 (stereo not drawn) [Compound 487] | > 80 | < 80 | < 80 | < 80 | < 80 | < 80 | < 25 | 25 to 74 | < 25 | < 25 | < 25 | 106 to 107 °C |  |  | 
CCOc1ccnc(C(=O)NC2COC(=O)[C@H](Cc3ccccc3)[C@@H](OC(=O)C(C)C)[C@H](C)OC2=O)c1O (stereo partly drawn) [Compound 475] | > 80 | < 80 | > 80 | > 80 | < 80 | < 80 | < 25 | 25 to 74 | < 25 | 25 to 74 |  | 168 to 172 °C |  |  | LEPTNO in vivo 1 Day Protectant [8, 9]: + +
COc1ccnc(C(=O)N[C@H]2COC(=O)[C@H](Cc3ccccc3)[C@@H](OCC(C)C)[C@H](C)OC2=O)c1O [Compound 384] | > 80 | < 80 |  |  | < 80 | < 80 | < 25 |  |  |  |  | 172 to 174 °C | > 80 | > 80 | pest or weed control at 100 ppm [7, 10]: 25 to 74%; ERYSGT in vivo 1 Day Protectant (Erysiphe graminis—ERYSGT; [10]): + +; pest or weed control at 100 ppm (Septoria tritici—SEPTTR; [10]): 25 to 74%; LEPTNO in vivo 1 Day Protectant [8, 10]: + +
COc1ccnc(C(=O)NC2CC(C)(C)C(OC(=O)c3ccccc3)C(C)(C)C2)c1O (stereo not drawn) [Compound 268] | < 80 | < 80 |  |  | < 80 | > 80 | < 25 |  |  |  |  | 175 to 200 °C | < 80 | > 80 | pest or weed control at 100 ppm [7, 11]: 25 to 74%; pest or weed control at 100 ppm (Erysiphe graminis—ERYSGT; [11]): < 25%; pest or weed control at 100 ppm (Septoria tritici—SEPTTR; [11]): 25 to 74%; pest or weed control at 100 ppm [8, 11]: 25 to 74%
